Data set [1] is described as follows: Cytotoxicity against BAEC assessed as decrease in total intracellular LDH content at 15 mM measured after 1 hr by LDH assay relative to vehicle-treated control. It counts as cell-based, Bos taurus. Details: scale not given: the % may be the effect or the level left; call rule not given here. The conditions noted are these: cattle, 15000 µM.
In another data set the test system is Aorta. The data set is described as follows: Toxicity in Sprague-Dawley rat endothelium-intact aortic rings at 15 mM measured after 20 mins. Particulars: 15000 µM.
The nature of data set [2]: Antioxidant activity assessed as DPPH scavenging activity measured after 3 mins by spectrophotometric method. It counts as physicochemical.
Data set [3] is described as follows: Antioxidant activity assessed as AAPH free radical scavenging activity measured as trolox equivalent by TRAP assay. It counts as physicochemical.
Data set [4] can be described thus: Antioxidant activity assessed as inhibition of […]-xanthine oxidase system-mediated superoxide formation measured over 7 mins by lucigenin-based chemiluminescence analysis. It counts as physicochemical.
The target in data set [5] is Xanthine dehydrogenase/oxidase (Homo sapiens, UniProt P47989). The data set is described as follows: Inhibition of xanthine oxidase (unknown origin) using xanthine as substrate assessed as inhibition of uric acid formation at 1 to 100 uM after 30 mins by spectrophotometric method. Particulars: 0.5 h.
Chain of Xanthine dehydrogenase/oxidase (P47989 whole entry): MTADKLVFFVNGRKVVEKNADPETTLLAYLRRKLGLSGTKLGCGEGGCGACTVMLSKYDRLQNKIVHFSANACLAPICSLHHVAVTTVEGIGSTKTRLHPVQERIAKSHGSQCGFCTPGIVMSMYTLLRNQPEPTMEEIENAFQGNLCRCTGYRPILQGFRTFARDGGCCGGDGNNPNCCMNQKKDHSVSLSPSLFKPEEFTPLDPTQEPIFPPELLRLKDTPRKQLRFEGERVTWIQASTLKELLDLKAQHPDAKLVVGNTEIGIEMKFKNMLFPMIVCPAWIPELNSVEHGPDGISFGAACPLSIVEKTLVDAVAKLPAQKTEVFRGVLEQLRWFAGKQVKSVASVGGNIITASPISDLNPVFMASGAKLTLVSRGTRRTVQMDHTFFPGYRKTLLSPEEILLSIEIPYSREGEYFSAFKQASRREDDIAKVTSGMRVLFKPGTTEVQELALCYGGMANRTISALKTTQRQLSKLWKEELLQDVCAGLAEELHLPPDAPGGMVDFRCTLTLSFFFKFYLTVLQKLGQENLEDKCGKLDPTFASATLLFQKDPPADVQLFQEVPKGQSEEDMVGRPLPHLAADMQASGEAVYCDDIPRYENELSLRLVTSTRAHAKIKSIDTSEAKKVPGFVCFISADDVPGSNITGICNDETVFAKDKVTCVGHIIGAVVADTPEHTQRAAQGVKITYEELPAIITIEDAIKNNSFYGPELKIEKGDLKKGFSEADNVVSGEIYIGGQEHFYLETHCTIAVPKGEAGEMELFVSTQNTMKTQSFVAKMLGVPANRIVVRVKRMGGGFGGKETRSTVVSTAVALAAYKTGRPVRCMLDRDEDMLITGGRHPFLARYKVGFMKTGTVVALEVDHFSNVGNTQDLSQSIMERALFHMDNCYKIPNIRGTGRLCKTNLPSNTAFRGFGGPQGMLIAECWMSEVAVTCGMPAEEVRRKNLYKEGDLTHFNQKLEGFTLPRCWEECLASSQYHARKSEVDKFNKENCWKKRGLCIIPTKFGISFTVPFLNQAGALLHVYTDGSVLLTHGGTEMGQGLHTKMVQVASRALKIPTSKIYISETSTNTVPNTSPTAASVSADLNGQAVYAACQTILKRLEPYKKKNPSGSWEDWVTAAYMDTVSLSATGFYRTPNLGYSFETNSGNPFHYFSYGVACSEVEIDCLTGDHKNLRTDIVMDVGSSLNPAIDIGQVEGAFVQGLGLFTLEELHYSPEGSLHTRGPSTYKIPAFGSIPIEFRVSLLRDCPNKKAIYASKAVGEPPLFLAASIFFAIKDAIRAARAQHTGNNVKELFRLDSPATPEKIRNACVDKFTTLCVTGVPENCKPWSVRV
Data set [6] has as its system A549. The experiment in a line: Cytotoxicity against human A549 cells assessed as reduction in cell viability measured after 48 hrs by FMCA assay. The data set is classed as cell-based. Particulars: A549, 48 h.
The subject of data set [7] is A549. The data set is described as follows: Cytotoxicity against human A549 cells assessed as reduction in cell viability measured after 48 hrs by luminescence-based ATP assay. Particulars: A549, 48 h.
Data set [8] deals with A549. The experiment in a line: Cytotoxicity against human A549 cells assessed as reduction in cell viability measured after 48 hrs by MTT assay. The data set is classed as cell-based. Particulars: A549, 48 h. (In general: Formazan colour is commonly taken as a measure of viable cells.)
A short description of data set [9]: Cytotoxicity against BAEC assessed as reduction in cell viability measured after 24 hrs by MTT assay. Details: species or system Bos taurus. Particulars: cattle.

The values below come from ChEMBL document CHEMBL3822454, “On the vasoprotective mechanisms underlying novel β-phosphorylated nitrones: Focus on free radical characterization, scavenging and NO-donation in a biological model of oxidative stress” (Eur J Med Chem, 2016).

By EC50 is commonly meant the midpoint of the concentration-response curve. What is called IC50 is the point on the concentration scale where inhibition reaches its midpoint. In general, IC10 refers to the concentration at which the effect reaches the 10% level.

Where only a bound is given, the exact number is not on record here.

With `CCOP(=O)(OCC)C(C)(C)/[N+]([O-])=C/c1ccc(O)cc1O`, the Activity in [1] was below 10%; in the data set with Aorta, “Non-toxic”; in data set [3] it was 1.61 equiv. In data set [2], the EC50 is above 1000 µM. In [4], the IC50 was 43.3 µM. For the same molecule, in [5], the “inhibition (INH)” value was “Not Active”.

`CCOP(=O)(OCC)C(C)(C)/[N+]([O-])=C/c1ccc(NC(C)=O)cc1`: in data set [2], the EC50 is above 1000 µM. In [3], the Activity is 0.02 equiv. In addition, in data set [4], the IC50 came out at 26.3 µM. The “inhibition (INH)” value in data set [5] is on record as “Not Active”.

`CCOP(=O)(OCC)C(C)(C)/[N+]([O-])=C/c1ccc(C(=O)O)cc1`: in data set [2], the EC50 is above 1000 µM. In addition, the Activity in data set [3] was found to be 0.02 equiv. For the same molecule, the IC50 turned out to be 4.1 µM in [4], 7900 µM in the data set on A549 [6], 8200 µM with A549 [7] and 7300 µM with A549 [8]. In data set [5], the “inhibition (INH)” value is given as “Not Active”. The IC10 in data set [9] was 1300 µM.

As for `CCOP(=O)(OCC)C(C)NC(C)(C)C` (stereo unspecified), the IC50 in [4] is above 40000 µM.

Regarding `COc1cc(/C=C/C(=O)O)ccc1O` [FERULATE], the EC50 in [2] was found to be 61 µM. For the same molecule, the Activity in data set [3] turned out to be 2.16 equiv. Moreover, the IC50 in [4] came out at 34.9 µM; in the data set on A549 [6], 2600 µM; with A549 [7] it was 3200 µM; with A549 [8], 3100 µM. Moreover, in data set [9], the IC10 turned out to be 800 µM.

Take `O=C(O)/C=C/c1ccc(O)c(O)c1` [CAFFEIC ACID]: the EC50 in data set [2] is 17 µM. Moreover, the Activity in data set [3] is on record as 2.73 equiv. Further, the IC50 in data set [4] came out at 0.1 µM; in the data set on A549 [6], 500 µM; with A549 [7], 700 µM; with A549 [8], 700 µM. Moreover, the IC10 in data set [9] was found to be 200 µM.

On to `Cc1c(C)c2c(c(C)c1O)CCC(C)(C(=O)O)O2` (stereo unspecified) [TROLOX], for which, in data set [2], the EC50 is 20 µM. Besides, in data set [4], the IC50 stood at 13.3 µM.

Consider `O=C(O)c1cc(O)c(O)c(O)c1` [GALLIC ACID], for which the EC50 in [2] turned out to be 7 µM. Moreover, in [3], the Activity is listed as 1.18 equiv. Besides, the IC50 in [4] was 0.7 µM; in the data set with A549 [6], 400 µM; with A549 [7] it was 400 µM; in the data set with A549 [8], 400 µM. Also, the IC10 in data set [9] was below 100 µM.

`O=c1c(O)c(-c2ccc(O)c(O)c2)oc2cc(O)cc(O)c12` [QUERCETIN]: the EC50 in data set [2] came to 13 µM. Moreover, in data set [3], the Activity was determined as 6.28 equiv. Moreover, in [4], the IC50 was 0.5 µM.

For `CCOP(=O)(OCC)C(C)(C)/[N+]([O-])=C/c1cccc([N+](=O)[O-])c1`, the Activity in data set [1] is below 10%; with Aorta it was “Non-toxic”; in data set [3] it was 0.02 equiv. Also, in data set [2], the EC50 was above 1000 µM. Also, in data set [4], the IC50 was 52.3 µM. Also, the “inhibition (INH)” value in [5] is “Not Active”.

Regarding `CCOC(=O)c1ccc(/C=[N+](\[O-])C(C)(C)P(=O)(OCC)OCC)cc1`, the EC50 in data set [2] is above 1000 µM. Moreover, the Activity in [3] amounted to 0.16 equiv. For the same molecule, the IC50 in data set [4] came out at 6.8 µM; in the data set on A549 [6], 4500 µM; in the data set with A549 [7] it was 3600 µM; in the data set on A549 [8], 3500 µM. Besides, the “inhibition (INH)” value in [5] is on record as “Not Active”. For the same molecule, in data set [9], the IC10 worked out at 400 µM.

With `COc1cc(/C=C/C(=O)O)cc(OC)c1O` [SINAPINATE], the EC50 in data set [2] amounted to 35 µM. Further, the Activity in [3] was 1.64 equiv. The IC50 in data set [4] came out at 22.4 µM; with A549 [6], 4600 µM; with A549 [7] it was 5700 µM; with A549 [8] it was 4900 µM. In [9], the IC10 was found to be 1200 µM.
